Test results: ChEMBL document CHEMBL1134869, “Discovery of potent, selective human granzyme B inhibitors that inhibit CTL mediated apoptosis” (Bioorg Med Chem Lett, 2002); call rule not given here
Residues, ends and D or L forms follow the SMILES beside them.

What was measured:
Granzyme B [1] = target: T1, Granzyme B (Homo sapiens, UniProt P10144); experiment: Compound was tested for its inhibition against human granzyme B; Not active
Granzyme B [2] = target: T1, Granzyme B; experiment: Inhibition against human granzyme B
[3] = Inhibition of CTL mediated apoptosis using humanNK-92 natural killer cells acting on target K-562 cells whose DNA had previously been labeled with [125I]-iododeoxyuridine; type: cell-based, Homo sapiens; conditions: k562
Caspase-3 (Homo sapiens) = target: T2, Caspase-3 (Homo sapiens) (UniProt P42574); experiment: Compound was tested for its inhibition against Caspase-3 at 50 uM; Not active
T2 sequence (whole entry): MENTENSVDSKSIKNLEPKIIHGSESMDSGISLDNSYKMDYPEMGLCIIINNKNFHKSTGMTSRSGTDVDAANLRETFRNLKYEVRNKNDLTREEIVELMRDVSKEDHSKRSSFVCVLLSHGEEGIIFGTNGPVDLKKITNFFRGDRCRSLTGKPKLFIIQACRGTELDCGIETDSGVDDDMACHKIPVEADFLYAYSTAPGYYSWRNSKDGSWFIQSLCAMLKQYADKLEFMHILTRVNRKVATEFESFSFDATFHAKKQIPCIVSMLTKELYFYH

T1 sequence (P10144 whole entry): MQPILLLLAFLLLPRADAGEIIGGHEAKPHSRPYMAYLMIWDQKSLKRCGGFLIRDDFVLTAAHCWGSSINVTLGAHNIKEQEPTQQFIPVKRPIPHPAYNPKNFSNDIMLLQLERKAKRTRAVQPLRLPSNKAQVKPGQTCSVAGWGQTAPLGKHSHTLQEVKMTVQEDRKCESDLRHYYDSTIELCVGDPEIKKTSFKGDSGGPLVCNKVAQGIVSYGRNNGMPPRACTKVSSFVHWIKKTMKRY

Row | Ki (Granzyme B [2]) | SMILES | other results
1 | – | CC[C@H](C)[C@@H](C(=O)N[C@H]1CCc2cccc3c2N(C1=O)[C@H](C(=O)NCc1nc[nH]n1)C3)N(C)C(C)=O | Ki (Granzyme B [1]): Not Active
2 | 0.013 µM | CC[C@H](C)[C@H](NC(C)=O)C(=O)NCC(=O)N1c2ccccc2C[C@H]1C(=O)N[C@H](C=O)CC(=O)O | –
3 | 0.075 µM | CC(C)[C@@H](C(=O)N[C@H]1CCc2cccc3c2N(C1=O)[C@H](C(=O)NCc1cn[nH]n1)C3)c1ccccn1 | Ki [3]: 0.03 µM
4 | 0.016 µM | CC[C@H](C)[C@@H](C(=O)N[C@H]1CCc2cccc3c2N(C1=O)[C@H](C(=O)N[C@@H](CC(=O)O)C(=O)C(=O)OC)C3)N(C)C(C)=O | –
5 | 0.085 µM | CC[C@H](C)[C@@H](C(=O)N[C@H]1CCc2cccc3c2N(C1=O)[C@H](C(=O)N[C@@H](CC(=O)O)C(=O)c1nc2ccccc2s1)C3)N(C)C(C)=O | –
6 | 0.58 µM | CC[C@H](C)[C@@H](C(=O)N[C@H]1CCc2cccc3c2N(C1=O)[C@H](C(=O)NCCC(=O)O)C3)N(C)C(C)=O | inhibition (Caspase-3 (Homo sapiens)): < 50%
7 | 0.013 µM | CC[C@H](C)[C@H](NC(=O)Cc1ccccc1)C(=O)N[C@H]1CCc2cccc3c2N(C1=O)[C@H](C(=O)NCc1cn[nH]c1)C3 | Ki [3]: 0.0063 µM
8 | 0.27 µM | CC[C@H](C)[C@H](NC(C)=O)C(=O)NCC(=O)N1CCC[C@H]1C(=O)N[C@H](C=O)CC(=O)O (Ac-IGPD-aldehyde) | –
9 | 0.074 µM | CC[C@H](C)[C@@H](C(=O)N[C@H]1CCc2cccc3c2N(C1=O)[C@H](C(=O)NCc1nnn[nH]1)C3)N(C)C(C)=O | –
10 | 0.038 µM | CC[C@H](C)[C@@H](C(=O)N[C@H]1CCc2cccc3c2N(C1=O)[C@H](C(=O)NCc1cn[nH]n1)C3)N(C)C(C)=O | Ki [3]: 0.03 µM
11 | 0.007 µM | CC[C@H](C)[C@@H](C(=O)N[C@H]1CCc2cccc3c2N(C1=O)[C@H](C(=O)N[C@@H](CC(=O)O)C(=O)c1nnc(-c2ccccc2)o1)C3)N(C)C(C)=O | –
12 | 0.36 µM | CC[C@H](C)[C@@H](C(=O)N[C@H]1CCc2cccc3c2N(C1=O)[C@H](C(=O)NCc1cc(=O)[nH]o1)C3)N(C)C(C)=O | –
13 | 2.3 µM | CC[C@H](C)[C@@H](C(=O)N[C@H]1CCc2cccc3c2N(C1=O)[C@H](C(=O)N[C@@H](CC(=O)O)C(=O)CSCc1ccc(F)cc1)C3)N(C)C(C)=O | –
14 | – | CC[C@H](C)[C@@H](C(=O)N[C@H]1CCc2cccc3c2N(C1=O)[C@H](C(=O)NCc1cc[nH]n1)C3)N(C)C(C)=O | Ki (Granzyme B [1]): Not Active
15 | – | CC[C@H](C)[C@@H](C(=O)N[C@H]1CCc2cccc3c2N(C1=O)[C@H](C(=O)NCc1cn[nH]c1)C3)N(C)C(C)=O | Ki (Granzyme B [1]): Not Active
16 | 0.133 µM | CC[C@H](C)[C@H](NC(C)=O)C(=O)Nc1cccn(CC(=O)N[C@H](C=O)CC(=O)O)c1=O | –
17 | 0.122 µM | CC[C@H](C)[C@H](NC(C)=O)C(=O)N[C@H]1CC[C@H]2CC[C@@H](C(=O)N[C@H](C=O)CC(=O)O)N2C1=O | –
18 | 0.08 µM | CC[C@H](C)[C@H](NC(C)=O)C(=O)N[C@@H](CCC(=O)O)C(=O)N1CCC[C@H]1C(=O)N[C@H](C=O)CC(=O)O (Ac-IEPD-aldehyde) | –
19 | 0.007 µM | CC[C@H](C)[C@H](NC(=O)Cc1csc2ccccc12)C(=O)N[C@H]1CCc2cccc3c2N(C1=O)[C@H](C(=O)NCc1cn[nH]c1)C3 | Ki [3]: 0.0031 µM
